Entries after “also recorded” stand apart in the source; their conditions may differ. Read-outs that look alike come from different tables or passages of the source.
Columns and labels:
[1] = Pentobarbitone sleeping test; assay type: in vivo, mouse; details: single ip dose 25 mg/kg
Method: In this experiment, the activity of these transcription factors in combination was determined by measuring the barbiturate induced sleeping time. Sleeping time has been known for many years to be directly proportional to the hepatic cytochrome P450 activity and this activity can be at least in part ascribed to the P450 levels in the liver determined by CAR and PXR function.
Mice were given a single intraperitoneal dose of Narcoren (sodium pentobarbitone; purchased via a Veterinary Consultant; distributed by Merial GmbH, Germany) at 25 mg/kg of body weight. The time taken for the mice to lose, and subsequently to regain, their righting reflex was measured.

Cyp3a11 [2] = details: wild-type mice (Ma et al. 2007); cited from earlier work
[3] = system: components of drug metabolism pathways; details: inducer of components of drug metabolism pathways; species in which it is known to act more potently; cited from earlier work
Cyp2b10 [4] = assay: Cyp2b10 protein expression of treated mice by SDS-PAGE and Western blotting; details: for Cyp2b10 induction (Western blot and PROD activity): CITCO 10 mg/kg; for Cyp2b10 induction profile (Western blot and PROD, liver microsomes): wild-type vs huCAR mice, increasing amounts
Method: (§1) Dosing solutions were prepared on the day of administration by adding corn oil to the requisite quantity of test substance and stirring to obtain a solution or fine suspension. The concentration of PCN was 10 mg/ml and Rif 2.5 mg/ml of supplied chemical, without any correction for purity. Records of preparation were retained.
Control animals were administered vehicle (corn oil) daily by intraperitoneal injection. The volume of vehicle and solutions of inducing agents administered was 10 ml/kg bodyweight. This route of administration was chosen for consistency with previously published work. […]
(§2) Quantification of Cyp3a11, Cyp2b10 and PXR protein in liver microsomes of all mice samples was carried out by SDS-PAGE and Western blotting. To detect murine and human PXR protein, an antibody (RF8) was employed. For the identification of Cyp3a and Cyp2b, […] were used, (CH32 and CH4, respectively).

Cyp2b10 [5] = assay: pentoxyresorufin-O-deethylation (PROD) and BROD activity assay in liver microsomes of treated mice
liver cells = assay: BrdU incorporation in liver (hepatic cell proliferation, S-phase labelling index); assay type: in vivo, mouse; details: wild-type and huCAR mice
Cyp3a11 [6] = assay: Cyp3a11 protein expression in liver microsomes of treated mice by SDS-PAGE and Western blotting; details: for Cyp3a11 expression in liver (Western blot): single injection 0, 1, 10, 50 mg/kg, 48 hours
Method: as §1
The volume of vehicle and solutions of inducing agents administered was 10 ml/kg bodyweight. This route of administration was chosen for consistency with previously published work. […]
as §2

[7] = Method: For the same animals, plasma levels of alanine aminotransferase (ALT), alkaline phosphatase (ALP) and aspartate aminotransferase (AST) were also measured (see FIG. 40). […] Both compounds were administered at 40 mg/kg.
Plasma levels of alanine aminotransferase (ALT), alkaline phosphatase (ALP) and aspartate aminotransferase (AST) were also measured (see FIG. 46).

cytochrome P450 enzymes = details: single ip; for induction of testosterone 16-beta-hydroxylation: 1 mg/kg
Method: The study consisted of 3 animals per group. Control groups consisted of mice treated with either corn oil daily for 4 days or mice administered a single injection of corn oil. The treated mice were dosed with inducing agents as detailed in Table 3.1.
PXR activity was determined by measuring the metabolism of a number of cytochrome P450 substrates which are metabolised to different extents by different cytochrome P450 enzymes. The following assays were performed: • 7-benzyloxyquinoline (BQ) activity was determined in liver microsomes. • Testosterone hydroxylase activity was determined in liver microsomes (LMS HPLC-006). • The specific activities of these reactions was expressed per mg protein as determined using the Lowry assay (LMS Spec-0001).

[8] = wild type mice, TCPOBOP 1 mg/kg

## CCCC(C)C1(CC)C(=O)NC(=O)NC1=O (stereo not shown) [pentobarbitone, sodium pentobarbitone]
[1]; PXR/CAR hum (double humanised) male mouse
  Sleeping time: 34 min
[1]; wt male mouse
  Sleeping time: 21 min

## CC(=O)[C@H]1[C@H](C#N)C[C@H]2[C@@H]3CC=C4C[C@@H](O)CC[C@]4(C)[C@H]3CC[C@@]21C [PCN, 5-Pregnen-3β-ol-20-one-16α-carbonitrile]
Cyp3a11 [2]
  induction of Cyp3a11 mRNA: strongly induced
[3]
  More potent in:: mouse

## Clc1ccc(-c2nc3sccn3c2C=NOCc2ccc(Cl)c(Cl)c2)cc1 [CITCO, 6-(4-chlorophenyl)imidazo[2,1-b][1,3]thiazole-5-carbaldehyde O-(3,4-dichlorobenzyl)oxime]
Cyp2b10 [4]; huCAR mice
  Cyp2b10 induction (Western blot and PROD activity): strong induction
Cyp2b10 [4]; huCAR mice, single injection 0, 1, 10, 50 mg/kg, 48 hours
  Cyp2b10 expression in liver (Western blot): clearly induced
Cyp2b10 [4]; koPXR mice
  Cyp2b10 induction (Western blot and PROD activity): Some induction
Cyp2b10 [4]; wild type mice, single injection 0, 1, 10, 50 mg/kg, 48 hours
  Cyp2b10 expression in liver (Western blot): did not induce
Cyp2b10 [4]; wild-type mice
  Cyp2b10 induction (Western blot and PROD activity): not substantially induced
Cyp2b10 [4]
  Cyp2b10 induction profile (Western blot and PROD, liver microsomes): stronger response in huCAR than in the wild-type
Cyp2b10 [5]; huCAR mice, increasing amounts of CITCO
  PROD activity: marked, dose-dependent induction of PROD activity
[3]
  More potent in:: human
Liver cells; 20 mg/kg 4 times daily, one day after final dose
  fraction of BrdU positive cells in the liver: elevated counts of BrdU positive liver cells only in huCAR animals, not in the wild-type
Cyp3a11 [6]; huCAR mice
  Cyp3a11 expression in liver (Western blot): clearly induced
Cyp3a11 [6]; wild type mice
  Cyp3a11 expression in liver (Western blot): did not induce

## C[C@@H]1C[C@H]2[C@@H]3CCC4=CC(=O)C=C[C@]4(C)[C@@]3(F)[C@@H](O)C[C@]2(C)[C@@]1(O)C(=O)CO [dexamethasone]
Cyp2b10 [4]; mouse, in vivo, 10 mg/kg
  Cyp2b10 expression: induced Cyp2b10 expression in both wild-type and huCAR mice
  Cyp2b10 induction (Western blot), comparison: less pronounced in huCAR than in wild-type mice
Cyp2b10 [4]; mouse, in vivo, 40 mg/kg
  Cyp2b10 expression in liver (Western blot): still induced
Cyp2b10 [4]; mouse, in vivo, 60 mg/kg
  induction of Cyp2b10 (Western blot): induced
Cyp2b10 [5]; huCAR vs wild type mice, 10 mg/kg
  Cyp2b10 induction (PROD activity), comparison: weaker in huCAR than in wild type mice
Cyp2b10 [5]; koCAR mice, 40 mg/kg
  PROD activity: still induced
Cyp2b10 [5]; wild-type, huPXR and koPXR mice, 60 mg/kg
  PROD activity: corresponding results were obtained
[7]; huPXR mice, dexamethasone 60 mg/kg
  mortality: One dexamethasone-treated huPXR mouse died
[7]; mouse, in vivo, 30 mg/kg
  increase in plasma ALT levels and liver weights: clearly more pronounced in mice lacking murine PXR

## Clc1ccccc1C(c1ccccc1)(c1ccccc1)n1ccnc1 [Clotrimazole]
[3]
  More potent in:: mouse

## Clc1cnc(Oc2ccc(Oc3ncc(Cl)cc3Cl)cc2)c(Cl)c1 [TCPOBOP]
Cyp2b10 [4]; huCAR mice, TCPOBOP 1 mg/kg
  Cyp2b10 expression (Western blot and PROD activity): did not significantly induce
Cyp2b10 [4]; koCAR mice, 1 mg/kg
  Cyp2b10 induction in liver (Western blot, densitometry): no Cyp2b10 was induced
Cyp2b10 [4]; koPXR mice, TCPOBOP 1 mg/kg
  Cyp2b10 protein expression and PROD activity: comparable to wild type
Cyp2b10 [4]; [8]
  Cyp2b10 expression (Western blot and PROD activity): induced; also recorded: strongly induced
Cyp2b10 [4]
  Cyp2b10 induction profile (Western blot and PROD, liver microsomes): more strongly in the wild-type than huCAR mice
[3]
  More potent in:: mouse
Liver cells; single dose 3 mg/kg, one day after dose
  fraction of BrdU positive cells in the liver: elevated counts of BrdU positive liver cells only in wild-type animals
Cytochrome P450 enzymes; huPXR mice
  induction of testosterone 16-beta-hydroxylation: 1.7 fold
Cytochrome P450 enzymes; wild type and huPXR mice, TCPOBOP 0.3 and 1 mg/kg
  induction of 6-beta-hydroxylation of testosterone: inducible in both strains of mouse
Cytochrome P450 enzymes; wild type mice
  induction of testosterone 16-beta-hydroxylation: approximately 6 fold
Cytochrome P450 enzymes; wild type mice, TCPOBOP 0.3 and 1 mg/kg
  induction of testosterone 16-alpha-hydroxylation: significantly induced
Cyp3a11 [6]; [8]
  Cyp3a11 expression (Western blot and BQ activity): somewhat induced
